From patent US6376541B1, “Upregulation of endogenous prostaglandins to lower intraocular pressure” (Alcon Manufacturing, Ltd., priority 1998, dated 2002)
Where two headings read alike, the source gives them in different places.

Legend:
[1] = test system: cultured trabecular-meshwork cells; details: cited from earlier work
[2] = test system: human trabecular meshwork cells; test: Induction of PGE2 synthesis in cultured human trabecular meshwork cells (14C-arachidonic acid, TLC); type: cell-based; details: 10 ng/ml each; for % of total CPM in PGE2 fraction (mean ± std dev): 17 hours then 14C-arachidonic acid for 4 hours
Protocol: Primary human trabecular meshwork cells were grown in culture according to the method of Weinreb, et al. from a donor. Cells (passage 5) were seeded into 12-well plates and grown until they just reached confluency, with culture medium replacement every 3-4 days. Triplicate wells of cells were then exposed to interleukin-1 beta (10 ng/ml final), TGF-beta 1 (10 ng/ml final) or both in 1 ml of Ham's F-10 Nutrient Mixture (Gibco-BRL), containing 2 mM L-glutamine and 0.4 mg/ml bovine serum albumin (Sigma Chemical Co.). Control cells received medium devoid of IL-1β and TGF-β1. Cells were then incubated in a 37° C., 5% CO2, humidified incubator for 17 hours. ^14C-arachidonic acid (300,000 dpm) was added to each well, and the cells were returned to the incubator for an additional 4 hours. A modified Bligh & Dyer lipid extraction [Can. J. Biochem. Physiol. 37,911 (1959)] was then performed on the cells and supernatants. An aliquot of the extracted samples and fatty acid standards were spotted on a moderate hardness silica gel thin-layer chromatography plate (Alltech K5, 20×20 cm, 250 μm thick). The plate was developed in prostaglandin TLC solvent (11:5:2:10 ethyl acetate: 2,2,4-trimethylpentane: acetic acid: distilled water), air-dried, and standard bands were visualized with vaporization of iodine crystals. Each lane on the plate was divided into segments based upon the position of the standards, and each segment was scraped off of the plate with a razor blade into a glass scintillation vial. Opti-fluor scintillation cocktail (Packard) was added to each vial, and the samples were counted on a beta scintillation counter. The amount of each fraction was calculated as a percentage of total counts per minute (CPM) from that sample.

[3] = test system: human corneal fibroblasts; test: Induction of prostaglandin synthesis in cultured human corneal fibroblasts (enzyme immunoassay of conditioned medium); type: cell-based; details: 10 ng/ml
Protocol: Primary human corneal fibroblasts were grown in culture from freshly denuded corneal stromal tissue from a donor. Cells (passage 4) were seeded into 12-well plates and grown to 80% confluency. Selected cells were then exposed to Interleukin-1 alpha (10 ng/ml final) in Ham's F-10 Nutrient mixture (HyClone Corporation) containing 10% fetal bovine serum by medium replacement in the wells. Control cells received medium devoid of this inflammatory cytokine. Cells were then incubated in a 37° C., 5% CO2, humidified incubator for 24 hours. Conditioned medium was then removed, centrifuged to remove any cellular debris (3 minutes at 2600 rpm and 4° C.), and analyzed for PGE2 and PGF2α, levels in the medium using specific enzyme immunoassay kits (Cayman Scientific). Cells in each well were counted, and prostaglandin levels normalized to the cell count for the respective wells.

fibroblasts = details: cited from earlier work
[4] = 24 hours, conditioned medium, normalized to cell count

Q: With `CCCCC/C=C\C/C=C\C/C=C\C/C=C\CCCC(=O)O` [arachidonic acid] as the compound, how does the “effect on PGE2 synthesis” value [1] read?
A: stimulate PGE2 synthesis

Q: With `NCCc1c[nH]cn1` [histamine] as the compound, how does the “effect on PGE2 synthesis” value [1] read?
A: stimulate PGE2 synthesis

Q: For `CCCCC/C=C\C\C=C/C=C/C=C/[C@@H](SC[C@H](NC(=O)CC[C@H](N)C(=O)O)C(=O)NCC(=O)O)[C@@H](O)CCCC(=O)O` [leukotriene C4], which “effect on PGE2 synthesis” value [1] is on record?
A: stimulate PGE2 synthesis

Q: Which “effect on PGE2 synthesis” value [1] does the source give for `CNc1ccc2oc(C[C@H]3O[C@@]4(CC[C@H]3C)O[C@H]([C@H](C)C(=O)c3ccc[nH]3)[C@H](C)C[C@H]4C)nc2c1C(=O)O` [lonophore A23187] here?
A: stimulate PGE2 synthesis

Q: Which “increase in PGE2 synthesis over non-treated control” value [2] does the source give for “IL-1β: interleukin-1 beta, prostaglandin upregulating agent (Genzyme)” here?
A: 440%

Q: And the “% of total CPM in PGE2 fraction (mean ± std dev)” value [2]?
A: 9.34 ± 0.70%

Q: With “INTERLEUKIN-1α: inflammatory cytokine Interleukin-1 alpha” as the compound, how does the “PGE2 produced per 100,000 cells in 24 hours (mean ± std dev)” value [3, 4] read?
A: 48,736 ± 3597 PICOGRAMS

Q: And the “PGF2α produced per 100,000 cells in 24 hours (mean ± std dev)” value [3, 4]?
A: 1704 ± 367 PICOGRAMS

Q: And the “elevation of the level of PGE2” value ([3]; versus unstimulated cells)?
A: > 47 fold

Q: And the “elevation of the level of PGF2α” value ([3]; versus unstimulated cells)?
A: > 3 fold

Q: With PDGF as the compound, how does the “stimulation of PGE2 synthesis” value (fibroblasts) read?
A: 10-15 fold

Q: What about the “stimulation of PGE2 synthesis” value (fibroblasts; in the presence of exogenous arachidonic acid) of the same compound?
A: 28 fold

Q: Which “increase in PGE2 synthesis over non-treated control” value [2] does the source give for “TGF-β1: Transforming Growth Factor beta 1, prostaglandin upregulating agent” here?
A: 74%

Q: And the “% of total CPM in PGE2 fraction (mean ± std dev)” value [2]?
A: 3.01 ± 0.38%
